Melting point data for 60 compounds are collected here from US7772271B2 (priority 2004, dated 2010).

What is called melting point is the temperature of the solid-liquid transition. `COCCOc1ccc2c(C#N)c(-c3ccc(NC(=O)OC(C)c4ccccc4)cc3)n(C3CC3)c2c1` (stereo not drawn) [Compound 1438] registered a melting point of 76 to 79 °C.

With `COCCOc1ccc2c(C#N)c(-c3ccc(NC(=O)OC(C)c4ccc(F)cc4)cc3)n(C3CC3)c2c1` (stereo not drawn) [Compound 1439], the melting point lay within 74 to 76 °C.

`CCOc1ccc2c(C#N)c(-c3ccc(NC(=O)NC(C)COC)cc3)n(C3CCC3)c2c1` (stereo not drawn) [Compound 1441] had a melting point of 192 to 196 °C.

In the case of `CC(C)OC(=O)Nc1ccc(-c2c(C#N)c3ccc(OC4CCN(Cc5ccccc5)C4)cc3n2C2CCC2)cc1` (stereo not drawn) [Compound 1442], the melting point is 144 to 145 °C.

As for `N#Cc1c(-c2ccc(N)cc2)n(C2CC2)c2cc(OC3CCOC3)ccc12` (stereo not drawn) [Compound 1443], the melting point lay in the range of 199 to 201 °C.

As for `CC(OC(=O)Nc1ccc(-c2c(C#N)c3ccc(OC4CCOC4)cc3n2C2CC2)cc1)c1ccccc1` (stereo not drawn) [Compound 1445], the melting point lay in the range of 112 to 115 °C.

The compound `CC(C)C(C)OC(=O)Nc1ccc(-c2c(C#N)c3ccc(OC4CCOC4)cc3n2C2CC2)cc1` (stereo not drawn) [Compound 1446] yielded a melting point of 207 to 208 °C.

The compound `CC(OC(=O)Nc1ccc(-c2c(C#N)c3ccc(OC4CCOC4)cc3n2C2CC2)cc1)C(C)(C)C` (stereo not drawn) [Compound 1447] showed a melting point of 220 to 222 °C.

`CC(NC(=O)Nc1ccc(-c2c(C#N)c3ccc(OC4CCOC4)cc3n2C2CC2)cc1)c1ccc(F)cc1` (stereo not drawn) [Compound 1448] displayed a melting point of 182 to 184 °C.

For the compound `CC(C)OC(=O)Nc1ccc(-c2c(C#N)c3ccc(OC4CCOC4)cc3n2C2CC2)cc1` (stereo not drawn) [Compound 1449], the melting point lay in the range of 180 to 181 °C.

In turn, `CCCS(=O)(=O)Nc1ccc(-c2c(C#N)c3ccc(OCCCO)cc3n2C2CCC2)cc1` [Compound 1450] registered a melting point of 162 to 163 °C.

In the case of `CCCS(=O)(=O)Nc1ccc(-c2c(C#N)c3ccc(OCCO)cc3n2C2CCC2)cc1` [Compound 1451], the melting point was in the range of 163 to 164 °C.

In the case of `CC(OC(=O)Nc1ccc(-c2c(C#N)c3ccc(OC4CCOC4)cc3n2C2CCC2)cc1)C1CC1` (stereo not drawn) [Compound 1453], the melting point fell in the range of 183 to 184 °C.

In turn, `CC(C)C(OC(=O)Nc1ccc(-c2c(C#N)c3ccc(OC4CCOC4)cc3n2C2CCC2)cc1)C(C)C` (stereo not drawn) [Compound 1454] registered a melting point of 183 to 184 °C.

Consider `N#Cc1c(-c2ccc(NC(=O)OC3CCC3)cc2)n(C2CCC2)c2cc(OC3CCOC3)ccc12` (stereo not drawn) [Compound 1455], for which the melting point was in the range of 183 to 184 °C.

`CC(OC(=O)Nc1ccc(-c2c(C#N)c3ccc(OC4CCOC4)cc3n2C2CCC2)cc1)c1ccccc1` (stereo not drawn) [Compound 1456] had a melting point of 183 to 184 °C.

Consider `CC(OC(=O)Nc1ccc(-c2c(C#N)c3ccc(OC4CCOC4)cc3n2C2CCC2)cc1)C(F)(F)F` (stereo not drawn) [Compound 1457], for which the melting point lay in the range of 183 to 184 °C.

With `CCC(OC(=O)Nc1ccc(-c2c(C#N)c3ccc(OC4CCOC4)cc3n2C2CCC2)cc1)C(C)C` (stereo not drawn) [Compound 1458], the melting point fell in the range of 183 to 184 °C.

In the case of `CCC(C)C(C)OC(=O)Nc1ccc(-c2c(C#N)c3ccc(OC4CCOC4)cc3n2C2CCC2)cc1` (stereo not drawn) [Compound 1459], the melting point was 183 to 184 °C.

In turn, `CC(OC(=O)Nc1ccc(-c2c(C#N)c3ccc(OC4CCOC4)cc3n2C2CCC2)cc1)C1CCCC1` (stereo not drawn) [Compound 1460] yielded a melting point of 183 to 184 °C.

The compound `CC(C)NC(=O)Nc1ccc(-c2c(C#N)c3ccc(OC4CCOC4)cc3n2C2CCC2)cc1` (stereo not drawn) [Compound 1462] yielded a melting point of 183 to 184 °C.

In turn, `CC(C)Nc1ccc(-c2c(C#N)c3ccc(OC4CCOC4)cc3n2C2CC2)cc1` (stereo not drawn) [Compound 2150] displayed a melting point of 170 to 172 °C.

`CCN(CC)C(=O)c1ccc2c(C#N)c(-c3ccc(NC(=O)OC(C)C)cc3)n(C3CCC3)c2c1` [Compound 2186]: the melting point is 189 to 191 °C.

`CCOc1ccc2c(C#N)c(-c3ccc(C(=O)NCCc4ccccn4)cc3)n(C3CCC3)c2c1` [Compound 2250]: the melting point fell in the range of 194 to 195 °C.

In turn, `CCOc1ccc2c(C#N)c(-c3ccc(C(=O)N4CC[C@@H](O)C4)cc3)n(C3CCC3)c2c1` [Compound 2251] had a melting point of 172 to 173 °C.

The compound `CCCN(CCC)C(=O)c1ccc2c(C#N)c(-c3ccc(NC(=O)O[C@H](C)C4CC4)cc3)n(C3CCC3)c2c1` [Compound 2271] came in with a melting point of 160 to 163 °C.

In turn, `CCN(CC)C(=O)c1ccc2c(C#N)c(-c3ccc(NC(=O)O[C@H](C)C4CC4)cc3)n(C3CCC3)c2c1` [Compound 2272] had a melting point of 166 to 168 °C.

Compound `CCC(C)NC(=O)c1ccc2c(C#N)c(-c3ccc(NC(=O)O[C@H](C)C4CC4)cc3)n(C3CCC3)c2c1` (stereo partly drawn) [Compound 2273] registered a melting point of 118 to 121 °C.

Consider `CCN(C)C(=O)c1ccc2c(C#N)c(-c3ccc(NC(=O)O[C@H](C)C4CC4)cc3)n(C3CCC3)c2c1` [Compound 2275], for which the melting point was 114 to 117 °C.

`C[C@@H](OC(=O)Nc1ccc(-c2c(C#N)c3ccc(C(=O)N(C)C)cc3n2C2CCC2)cc1)C1CC1` [Compound 2276] gave a melting point of 118 to 120 °C.

As for `COc1ccc2c(F)c(-c3ccc(NC(=O)NC(C)C)cc3)n(CC3CC3)c2c1` [Compound 2277], the melting point lay in the range of 217 to 221 °C.

For `CCN(CC)C(=O)c1ccc2c(C#N)c(-c3ccc(NS(=O)(=O)C4CC4)cc3)n(C3CCC3)c2c1` [Compound 2294], the melting point lay in the range of 205 to 207 °C.

Compound `CCC(C)NC(=O)c1ccc2c(C#N)c(-c3ccc(NS(=O)(=O)C4CC4)cc3)n(C3CCC3)c2c1` (stereo not drawn) [Compound 2295] yielded a melting point of 105 to 107 °C.

In the case of `CCN(C)C(=O)c1ccc2c(C#N)c(-c3ccc(NS(=O)(=O)C4CC4)cc3)n(C3CCC3)c2c1` [Compound 2296], the melting point lay within 202 to 205 °C.

For the compound `CN(C)C(=O)c1ccc2c(C#N)c(-c3ccc(NS(=O)(=O)C4CC4)cc3)n(C3CCC3)c2c1` [Compound 2297], the melting point lay in the range of 235 to 237 °C.

With `CC(C)OC(=O)Nc1ccc(-c2c(C#N)c3cc(OCCCn4cncn4)ccc3n2C2CCC2)cc1` [Compound 2605], the melting point lay within 204 to 205 °C.

Turning to `CC(C)OC(=O)Nc1ccc(-c2c(C#N)c3cc(OCCCn4cccn4)ccc3n2C2CCC2)cc1` [Compound 2606], the melting point fell in the range of 148 to 150 °C.

As to `CC(C)OC(=O)Nc1ccc(-c2c(C#N)c3cc(OCCCn4ccnc4)ccc3n2C2CCC2)cc1` [Compound 2607], the melting point fell in the range of 209 to 211 °C.

Compound `COCCOc1ccc2c(C#N)c(-c3ccc(NC(=O)OC(C)C)cc3)n(C(C)C)c2c1` [Compound 2608] had a melting point of 153 to 155 °C.

With `COCCOc1ccc2c(C#N)c(-c3ccc(NC(=O)OC4CCC4)cc3)n(C(C)C)c2c1` [Compound 2609], the melting point lay within 165 to 166 °C.

Compound `COCCOc1ccc2c(C#N)c(-c3ccc(NC(=O)OC4CCOC4)cc3)n(C(C)C)c2c1` (stereo not drawn) [Compound 2610] came in with a melting point of 181 to 183 °C.

Regarding `CCOCCOc1ccc2c(C#N)c(-c3ccc(NC(=O)OC(C)C)cc3)n(C3CCC3)c2c1` [Compound 2611], the melting point lay in the range of 115 to 116 °C.

Compound `CCOCCOc1ccc2c(C#N)c(-c3ccc(NC(=O)NC(C)C)cc3)n(C3CCC3)c2c1` [Compound 2612] yielded a melting point of 148 to 150 °C.

`CCOCCOc1ccc2c(C#N)c(-c3ccc(NC(=O)OC(C)C4CC4)cc3)n(C3CCC3)c2c1` (stereo not drawn) [Compound 2613] gave a melting point of 141 to 142 °C.

Compound `CC(OC(=O)Nc1ccc(-c2c(C#N)c3ccc(OC4CCOCC4)cc3n2C2CCC2)cc1)C1CC1` (stereo not drawn) [Compound 2615] had a melting point of 118 to 120 °C.

`CCC(CC)OC(=O)Nc1ccc(-c2c(C#N)c3ccc(OC4CCOCC4)cc3n2C2CCC2)cc1` [Compound 2617]: the melting point was in the range of 127 to 129 °C.

For `CC(OC(=O)Nc1ccc(-c2c(C#N)c3ccc(OC4CCOCC4)cc3n2C2CCC2)cc1)c1ccccc1` (stereo not drawn) [Compound 2618], the melting point was in the range of 96 to 98 °C.

As for `CC(C)OC(=O)Nc1ccc(-c2c(C#N)c3cc(OCCn4ccnc4)ccc3n2C2CCC2)cc1` [Compound 2631], the melting point is 185 to 188 °C.

On to `CCOCCOc1ccc2c(C#N)c(-c3ccc(NC(=O)OC(C)C(F)(F)F)cc3)n(C3CCC3)c2c1` (stereo not drawn) [Compound 2636], for which the melting point is 122 to 124 °C.

`CC(C)OC(=O)Nc1ccc(-c2c(C#N)c3ccc(O[C@@H]4CCOC4)cc3n2C2CCC2)cc1` [Compound 2638]: the melting point lay within 196 to 197 °C.

Consider `CC(OC(=O)Nc1ccc(-c2c(C#N)c3ccc(OCCCCn4ccnc4)cc3n2C2CCC2)cc1)c1ccc(F)cc1` (stereo not drawn) [Compound 2642], for which the melting point lay in the range of 93 to 95 °C.

As for `CC(OC(=O)Nc1ccc(-c2c(C#N)c3ccc(OCCCCn4cncn4)cc3n2C2CCC2)cc1)C(F)(F)F` (stereo not drawn) [Compound 2643], the melting point fell in the range of 168 to 169 °C.

`CC(OC(=O)Nc1ccc(-c2c(C#N)c3ccc(OCCCCn4cncn4)cc3n2C2CCC2)cc1)c1ccc(F)cc1` (stereo not drawn) [Compound 2644] had a melting point of 108 to 110 °C.

As for `N#Cc1c(-c2ccc(NC(=O)OC(c3ccccc3)C(F)(F)F)cc2)n(C2CCC2)c2cc(OCCCCn3cncn3)ccc12` (stereo not drawn) [Compound 2645], the melting point lay within 118 to 120 °C.

As for `CC(OC(=O)Nc1ccc(-c2c(C#N)c3ccc(OCC4OCCO4)cc3n2C2CCC2)cc1)C(F)(F)F` (stereo not drawn) [Compound 2646], the melting point was 187 to 189 °C.

As for `CC(OC(=O)Nc1ccc(-c2c(C#N)c3ccc(OC4CCOCC4)cc3n2C2CC2)cc1)C1CC1` (stereo not drawn) [Compound 2647], the melting point was in the range of 130 to 133 °C.

`CC(OC(=O)Nc1ccc(-c2c(C#N)c3ccc(OC4CCOCC4)cc3n2C2CC2)cc1)C(C)(C)C` (stereo not drawn) [Compound 2648] returned a melting point of 203 to 205 °C.

For the compound `CC(OC(=O)Nc1ccc(-c2c(C#N)c3ccc(OC4CCOCC4)cc3n2C2CC2)cc1)C(F)(F)F` (stereo not drawn) [Compound 2649], the melting point was in the range of 207 to 209 °C.

On to `CC(NC(=O)Nc1ccc(-c2c(C#N)c3ccc(OC4CCOCC4)cc3n2C2CC2)cc1)c1ccc(F)cc1` (stereo not drawn) [Compound 2653], for which the melting point lay within 189 to 192 °C.

On to `N#Cc1c(-c2ccc(NC(=O)OC(C(F)(F)F)C(F)(F)F)cc2)n(C2CCC2)c2cc(OCC3OCCO3)ccc12` [Compound 2657], for which the melting point lay in the range of 202 to 205 °C.
